In ChEMBL document CHEMBL1146969, “Stereoselective synthesis and fungicidal activities of (E)-alpha-(methoxyimino)-benzeneacetate derivatives containing 1,3,4-oxadiazole ring” (2006) one finds inhibition data, which are given here for 16 compounds.

What all share (type): functional
One assay has as its system Botrytis cinerea. The assay can be described thus: Antifungal activity against Botrytis cinereapers at 50 ug/ml.
For a further assay, the system named is Bipolaris maydis. Put plainly: Antifungal activity against Bipolaris maydis at 50 ug/ml.
Assay [1] deals with Botryosphaeria berengeriana. The assay can be described thus: Antifungal activity against Physalospora piricola at 50 ug/ml.
The subject of a further assay is Thanatephorus cucumeris. The assay can be described thus: Antifungal activity against Rhizoctonia solani at 50 ug/ml.
In another assay the test system is Fusarium graminearum. The assay can be described thus: Antifungal activity against Gibberella zeae at 50 ug/ml.

On to `CO/N=C(/C(=O)OC)c1ccccc1CSc1nnc(-c2ccc(Cl)cc2Cl)o1`, for which the inhibition at 50 µg/mL with Botrytis cinerea amounted to 98.8%; with Bipolaris maydis, 85.7%; in assay [1], 88.9%; in the assay with Thanatephorus cucumeris, 92.6%; with Fusarium graminearum it was 74.3%.
As to `CO/N=C(/C(=O)OC)c1ccccc1CSc1nnc(-c2cccc(Cl)c2Cl)o1`, the inhibition at 50 µg/mL is 83.3% with Botrytis cinerea; 84% in the assay with Bipolaris maydis; 96.7% in assay [1]; 91.6% in the assay with Thanatephorus cucumeris; 84.3% in the assay with Fusarium graminearum.
`CO/N=C(/C(=O)OC)c1ccccc1CSc1nnc(-c2ccc(F)cc2)o1`: the inhibition at 50 µg/mL with Botrytis cinerea is 100%; in the assay with Bipolaris maydis, 91.7%; in assay [1], 100%; in the assay with Thanatephorus cucumeris, 97.9%; in the assay with Fusarium graminearum it was 98.6%.
For the compound `CO/N=C(/C(=O)OC)c1ccccc1CSc1nnc(-c2cccc(Cl)c2)o1`, the inhibition at 50 µg/mL was 85.4% in the assay with Botrytis cinerea; 90.9% in the assay with Bipolaris maydis; 92.6% in assay [1]; 94.4% with Thanatephorus cucumeris; 96.9% in the assay on Fusarium graminearum.
Consider `CO/N=C(/C(=O)OC)c1ccccc1CSc1nnc(-c2ccc(OCc3ccccc3)cc2)o1`, for which the inhibition at 50 µg/mL was determined as 90.6% in the assay with Botrytis cinerea; 95% in the assay on Bipolaris maydis; 96.9% in assay [1]; 98% with Thanatephorus cucumeris; 89.2% with Fusarium graminearum.
As to `CO/N=C(/C(=O)OC)c1ccccc1CSc1nnc(-c2ccc([N+](=O)[O-])cc2)o1`, the inhibition at 50 µg/mL stood at 88.5% with Botrytis cinerea; 86.4% with Bipolaris maydis; 96.3% in assay [1]; 85.9% in the assay on Thanatephorus cucumeris; 92.5% with Fusarium graminearum.
On to `CO/N=C(/C(=O)OC)c1ccccc1CSc1nnc(-c2cc(F)c(Cl)cc2Cl)o1`, for which the inhibition at 50 µg/mL in the assay on Botrytis cinerea was 98.8%; with Bipolaris maydis, 81.6%; in assay [1], 100%; in the assay on Thanatephorus cucumeris it was 97.8%; in the assay with Fusarium graminearum, 88.6%.
Turning to `CO/N=C(/C(=O)OC)c1ccccc1CSc1nnc(-c2cc(Cl)ccc2Cl)o1`, the inhibition at 50 µg/mL worked out at 88.5% with Botrytis cinerea; 82.7% in the assay with Bipolaris maydis; 100% in assay [1]; 97% with Thanatephorus cucumeris; 90.6% in the assay with Fusarium graminearum.
For the compound `CO/N=C(/C(=O)OC)c1ccccc1CSc1nnc(-c2ccc(C(F)(F)F)cc2)o1`, the inhibition at 50 µg/mL in the assay with Botrytis cinerea amounted to 84.6%; with Bipolaris maydis it was 81.8%; in assay [1] it was 100%; with Thanatephorus cucumeris, 95.6%; in the assay with Fusarium graminearum, 93.8%.
The matching figures for `CO/N=C(/C(=O)OC)c1ccccc1CSc1nnc(-c2ccc(Br)cc2F)o1`: 100%, 92.9%, 100%, 97.9% and 85.7%.
Taken in the same sequence, the figures for `CO/N=C(/C(=O)OC)c1ccccc1CSc1nnc(-c2ccccc2)o1` were 97.6%, 88%, 94.9%, 92.4% and 79.4%.
The matching figures for `CO/N=C(/C(=O)OC)c1ccccc1CSc1nnc(-c2cccc(F)c2F)o1`: 100%, 96.4%, 100%, 100% and 98.6%.
Turning to `CO/N=C(/C(=O)OC)c1ccccc1CSc1nnc(-c2ccc(OC)cc2)o1`, the inhibition at 50 µg/mL is 94.2% with Botrytis cinerea; 92.5% in the assay with Bipolaris maydis; 93.8% in assay [1]; 91.8% in the assay with Thanatephorus cucumeris; 85.7% in the assay with Fusarium graminearum.
For `CO/N=C(/C(=O)OC)c1ccccc1CSc1nnc(-c2ccccc2F)o1`, the inhibition at 50 µg/mL was 97.6% in the assay with Botrytis cinerea; 92.3% with Bipolaris maydis; 100% in assay [1]; 92.6% with Thanatephorus cucumeris; 98% with Fusarium graminearum.
As for `CO/N=C(/C(=O)OC)c1ccccc1CSc1nnc(-c2ccccc2I)o1`, the inhibition at 50 µg/mL amounted to 96.2% in the assay on Botrytis cinerea; 86.4% in the assay on Bipolaris maydis; 96.3% in assay [1]; 90.2% with Thanatephorus cucumeris; 98.4% with Fusarium graminearum.
As to `CO/N=C(/C(=O)OC)c1ccccc1COc1ccccc1C` [KRESOXIM-METHYL], the inhibition at 50 µg/mL with Botrytis cinerea is 97.2%; with Bipolaris maydis, 90.6%; in assay [1] it was 98.5%; in the assay with Thanatephorus cucumeris, 66.1%; with Fusarium graminearum, 96.8%.
